Laboratory results from patent US9180118B2, “Thiadiazolidinone derivatives” (University of Rochester, priority 2006, dated 2015).
Where a SMILES comes first, the peptide text is derived from it. The star is where a group is joined. Cbz = O=C(OCc1ccccc1)*; CH2F = FC*

Assays:
primary AML specimens = test: Viability of primary AML specimens, Annexin V/7-AAD flow cytometry; assay type: cell-based, human; conditions: for Rapid kinetics: cell death kinetics; for Cytotoxic AML: primary AML specimens
Experimental: (§1) The cells were isolated and processed as described. […] All drug treatments were performed in triplicate. […] Total viable cell numbers were determined using a flow cytometric apoptosis assay as described. Briefly, after 18 h of treatment, specimens were labeled with anti-CD34-PE (Becton Dickinson, San Jose, Calif.) for 20 minutes. […] The total number of events collected was 100,000. The percent viable cells was defined as AnnexinV^neg/7-AAD^neg cells on total (ungated) cells and on gates set for CD34^+ populations. • [1] Jordan, C. T., et al., The interleukin-3 receptor alpha chain is a unique marker for human acute myelogenous leukemia stem cells. Leukemia, 2000. 14(10): p. […] Lansdorp, P. M. and W. Dragowska, Long-term erythropoiesis from constant numbers of CD34+ cells in serum-free cultures initiated with highly purified progenitor cells from human bone marrow. […] Guzman, M. L., et al., Nuclear factor-kappaB is constitutively activated in primitive human acute myelogenous leukemia cells. […] 98(8): p.

[1] = tested on: normal specimens (BM, CB, MPB); test: Viability of normal specimens (BM, CB, MPB), Annexin V/7-AAD; assay type: cell-based, human; conditions: normal specimens
Experimental: as §1

[2] = listed as 2-chloro-1-(4,5-dibromo-thiophen-2-yl-ethanone)
[3] = pre-treated 1 h prior to 20 μM TDZD-8, viability at 24 hours

| Compound | Rapid kinetics (primary AML specimens) | Cytotoxic AML (primary AML specimens) | Cytotoxic Normal [1] | Cytotoxic AML (primary AML specimens; [2]) | Cytotoxic Normal [1, 2] | effect of pretreatment on cell death induced by TDZD-8 (primary AML specimens; [3]) | abrogation of TDZD-8 induced death by pan-caspase inhibitor (primary AML specimens; [3]) |
| --- | --- | --- | --- | --- | --- | --- | --- |
| O=C1Cc2c([nH]c3ccc(Br)cc23)-c2ncccc2N1 [1-Azakenpaullone] | No | No | No |  |  |  |  |
| O=c1sn(Cc2ccccc2)c(=S)n1Cc1ccccc1 [2,4-Dibenzyl-5-oxothiadiazolidine-3-thione] | No | No | No |  |  |  |  |
| O=C1CSC(=O)N1 [2,4-thiazolidinedione] | No | No | No |  |  |  |  |
| O=C(CCl)c1cc(Br)c(Br)s1 [2-Chloro-1-(4,5-dibromo-thiophen-2-yl)-ethanone] | No | Yes | Yes | could induce AML cell death | toxic to normal cells |  |  |
| O=C1NC(=O)C(=Cc2ccc3c(c2)OC(F)(F)O3)S1 [5-(2,2-Difluoro-benzo[1,3]dioxol-5-ylmethylene)-thiazolidine-2,4-dione] | No |  |  |  |  |  |  |
| Cc1cc(Nc2nc(-c3ccccc3)nc3ccccc23)n[nH]1 [(5-Methyl-1H-pyrazol-3-yl)-(2-phenylquinazolin-4-yl)amine] | No | No | No |  |  |  |  |
| CCOc1ccc(C=C2SC(=O)N(CCN)C2=O)cc1.Cl [-(2-Aminoethyl)-5-((4-ethoxyphenyl)methylene)-2,4-thiazolidinedione, HCl] | No | No | No |  |  |  |  |
| COc1ccc(CNC(=O)Nc2ncc([N+](=O)[O-])s2)cc1 [AR-A014418] | No | No | No |  |  |  |  |
| O=C1Nc2cc(Br)ccc2/C1=C1/Nc2ccccc2/C1=N\O [BIO] |  | No | No |  |  |  |  |
| O=C1NC(=O)C(Cc2ccc(OCCN3COc4ccccc4C3=O)cc2)S1 (stereo not drawn) [DRF 2519] | No | No | No |  |  |  |  |
| CC(=O)N[C@@H](CS)C(=O)O [NAC, N-acetyl-cysteine] |  |  |  |  |  | completely blocked the cell death response |  |
| Cn1cc(C2=C(c3ccc(Cl)cc3Cl)C(=O)NC2=O)c2ccccc21 [SB-216763] | No | No | No |  |  |  |  |
| Nc1cccc(-c2cc3c(Oc4cccc(O)c4)ncnc3[nH]2)c1 [TWS119] | No | No | No |  |  |  |  |
| Cc1c(C)c2c(c(C)c1O)CCC(C)(COc1ccc(CC3SC(=O)NC3=O)cc1)O2 (stereo not drawn) [Troglitazone] |  | Yes | Yes |  |  |  |  |
| CC(NC(=O)C(NC(=O)OCc1ccccc1)C(C)C)C(=O)NC(CC(=O)O)C(=O)CF (stereo not drawn) [Z-VAD] (Cbz-Val-Ala-Asp-CH2F; configuration not given here) |  |  |  |  |  |  | no abrogation of death was observed |
